Organism: Rattus norvegicus
Test: DrugMatrix - Regimen: Daily Repeat
Format: toxicity, organism-based, Sprague-Dawley
Set-up: regimen Daily Repeat, gender Male, age 6-8 weeks
Conditions: in vivo, po, route oral GAVAGE, vehicle .5 % CMC; for ABSOLUTE BASOPHIL / ABSOLUTE EOSINOPHIL / ABSOLUTE LYMPHOCYTE / ABSOLUTE MONOCYTE / ABSOLUTE SEGMENTED NEUTROPHIL / BASOPHIL / EOSINOPHIL / ERYTHROCYTE COUNT / HEMATOCRIT / HEMOGLOBIN / LEUKOCYTE COUNT / LYMPHOCYTE / MEAN CORPUSCULAR HEMOGLOBIN / MEAN CORPUSCULAR HEMOGLOBIN CONCENTRATION / MEAN CORPUSCULAR VOLUME / MONOCYTE / NEUTROPHIL / NUCLEATED RED BLOOD CELLS / PLATELET COUNT: tissue Blood; for ALANINE AMINOTRANSFERASE / ALBUMIN / ALKALINE PHOSPHATASE / ASPARTATE AMINOTRANSFERASE / BLOOD UREA NITROGEN / CARBON DIOXIDE / CHLORIDE / CHOLESTEROL / CREATINE PHOSPHOKINASE / CREATININE / GLUCOSE / LACTATE DEHYDROGENASE / LIPASE / PHOSPHORUS / POTASSIUM / SODIUM / TOTAL BILIRUBIN / TOTAL PROTEIN / URIC ACID: tissue Plasma
[1] = 19 mg/kg, 120 h, dose level High, time 5 day
[2] = […], 72 h, dose 6.6 mg/Kg, dose level Low, time 3 day
[3] = […], 120 h, dose 6.6 mg/Kg, dose level Low, time 5 day

Compound: NCC(CC(=O)O)c1ccc(Cl)cc1 (centres undefined) [BACLOFEN]
- ABSOLUTE BASOPHIL [1]: 0 CELLS/uL
- ABSOLUTE EOSINOPHIL [1]: 0 CELLS/uL
- ABSOLUTE LYMPHOCYTE [1]: 14854 CELLS/uL
- ABSOLUTE MONOCYTE [1]: 102.67 CELLS/uL
- ABSOLUTE SEGMENTED NEUTROPHIL [1]: 1043.33 CELLS/uL
- BASOPHIL [1]: 0%
- EOSINOPHIL [1]: 0%
- ERYTHROCYTE COUNT [1]: 5.41 x10E6/uL
- HEMATOCRIT [1]: 33.6%
- HEMOGLOBIN [1]: 13.33 G/DL
- LEUKOCYTE COUNT [1]: 16 x10E3/uL
- LYMPHOCYTE [1]: 93%
- MEAN CORPUSCULAR HEMOGLOBIN [1]: 24.7 pg
- MEAN CORPUSCULAR HEMOGLOBIN CONCENTRATION [1]: 39.73 G/DL
- MEAN CORPUSCULAR VOLUME [1]: 62.17 fL
- MONOCYTE [1]: 0.67%
- NEUTROPHIL [1]: 6.33%
- NUCLEATED RED BLOOD CELLS [1]: 0 /100WBC
- PLATELET COUNT [1]: 1022.33 x10E3/uL
- ALANINE AMINOTRANSFERASE [1]: 54.67 u/L
- ALBUMIN [1]: 4.1 G/DL
- ALKALINE PHOSPHATASE [1]: 431.33 u/L
- ASPARTATE AMINOTRANSFERASE [1]: 87.67 u/L
- BLOOD UREA NITROGEN [1]: 19.67 mg/dL
- CARBON DIOXIDE [1]: 26.33 mmol/L
- CHLORIDE [1]: 103.67 MEQ/L
- CHOLESTEROL [1]: 59.33 mg/dL
- CREATINE PHOSPHOKINASE [1]: 272.67 u/L
- CREATININE [1]: 0.23 mg/dL
- GLUCOSE [1]: 160 mg/dL
- LACTATE DEHYDROGENASE [1]: 391 u/L
- LIPASE [1]: 9 u/L
- PHOSPHORUS [1]: 11.13 mg/dL
- POTASSIUM [1]: 6.54 MEQ/L
- SODIUM [1]: 147.27 MEQ/L
- TOTAL BILIRUBIN [1]: 0.3 mg/dL
- TOTAL PROTEIN [1]: 5.87 G/DL
- URIC ACID [1]: 1.4 mg/dL
- ABSOLUTE BASOPHIL [2]: 0 CELLS/uL
- ABSOLUTE EOSINOPHIL [2]: 196 CELLS/uL
- ABSOLUTE LYMPHOCYTE [2]: 14434 CELLS/uL
- ABSOLUTE MONOCYTE [2]: 264.67 CELLS/uL
- ABSOLUTE SEGMENTED NEUTROPHIL [2]: 1038.67 CELLS/uL
- BASOPHIL [2]: 0%
- EOSINOPHIL [2]: 1%
- ERYTHROCYTE COUNT [2]: 5.8 x10E6/uL
- HEMATOCRIT [2]: 36.17%
- HEMOGLOBIN [2]: 13.87 G/DL
- LEUKOCYTE COUNT [2]: 15.93 x10E3/uL
- LYMPHOCYTE [2]: 90.67%
- MEAN CORPUSCULAR HEMOGLOBIN [2]: 24.03 pg
- MEAN CORPUSCULAR HEMOGLOBIN CONCENTRATION [2]: 38.37 G/DL
- MEAN CORPUSCULAR VOLUME [2]: 62.57 fL
- MONOCYTE [2]: 1.67%
- NEUTROPHIL [2]: 6.67%
- NUCLEATED RED BLOOD CELLS [2]: 0 /100WBC
- PLATELET COUNT [2]: 1144 x10E3/uL
- ALANINE AMINOTRANSFERASE [2]: 51.67 u/L
- ALBUMIN [2]: 4.27 G/DL
- ALKALINE PHOSPHATASE [2]: 456 u/L
- ASPARTATE AMINOTRANSFERASE [2]: 81.33 u/L
- BLOOD UREA NITROGEN [2]: 18.33 mg/dL
- CARBON DIOXIDE [2]: 27 mmol/L
- CHLORIDE [2]: 100 MEQ/L
- CHOLESTEROL [2]: 67 mg/dL
- CREATINE PHOSPHOKINASE [2]: 351.67 u/L
- CREATININE [2]: 0.23 mg/dL
- GLUCOSE [2]: 153.33 mg/dL
- LACTATE DEHYDROGENASE [2]: 367.67 u/L
- LIPASE [2]: 10.67 u/L
- PHOSPHORUS [2]: 12.53 mg/dL
- POTASSIUM [2]: 7.1 MEQ/L
- SODIUM [2]: 142.1 MEQ/L
- TOTAL BILIRUBIN [2]: 0.2 mg/dL
- TOTAL PROTEIN [2]: 5.93 G/DL
- URIC ACID [2]: 1.63 mg/dL
- ABSOLUTE BASOPHIL [3]: 0 CELLS/uL
- ABSOLUTE EOSINOPHIL [3]: 160.33 CELLS/uL
- ABSOLUTE LYMPHOCYTE [3]: 14603.33 CELLS/uL
- ABSOLUTE MONOCYTE [3]: 300.67 CELLS/uL
- ABSOLUTE SEGMENTED NEUTROPHIL [3]: 1335.67 CELLS/uL
- BASOPHIL [3]: 0%
- EOSINOPHIL [3]: 1%
- ERYTHROCYTE COUNT [3]: 5.47 x10E6/uL
- HEMATOCRIT [3]: 35.43%
- HEMOGLOBIN [3]: 13.57 G/DL
- LEUKOCYTE COUNT [3]: 16.4 x10E3/uL
- LYMPHOCYTE [3]: 89%
- MEAN CORPUSCULAR HEMOGLOBIN [3]: 24.8 pg
- MEAN CORPUSCULAR HEMOGLOBIN CONCENTRATION [3]: 38.3 G/DL
- MEAN CORPUSCULAR VOLUME [3]: 64.8 fL
- MONOCYTE [3]: 1.67%
- NEUTROPHIL [3]: 8.33%
- NUCLEATED RED BLOOD CELLS [3]: 0 /100WBC
- PLATELET COUNT [3]: 1121.33 x10E3/uL
- ALANINE AMINOTRANSFERASE [3]: 51 u/L
- ALBUMIN [3]: 4.23 G/DL
- ALKALINE PHOSPHATASE [3]: 364.33 u/L
- ASPARTATE AMINOTRANSFERASE [3]: 94.33 u/L
- BLOOD UREA NITROGEN [3]: 19 mg/dL
- CARBON DIOXIDE [3]: 28.33 mmol/L
- CHLORIDE [3]: 100.67 MEQ/L
- CHOLESTEROL [3]: 71 mg/dL
- CREATINE PHOSPHOKINASE [3]: 448 u/L
- CREATININE [3]: 0.15 mg/dL
- GLUCOSE [3]: 140.33 mg/dL
- LACTATE DEHYDROGENASE [3]: 505 u/L
- LIPASE [3]: 10 u/L
- PHOSPHORUS [3]: 11.6 mg/dL
- POTASSIUM [3]: 6.27 MEQ/L
- SODIUM [3]: 143.57 MEQ/L
- TOTAL BILIRUBIN [3]: 0.23 mg/dL
- TOTAL PROTEIN [3]: 6.07 G/DL
- URIC ACID [3]: 1.37 mg/dL
